According to PubChem BioAssay (NCI):
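Growth conditions: 96-well plates. Treatment: test compound, 48 hours, 5 concentrations. Analysis: linear interpolation between bracketing concentrations; unreached endpoints set to highest concentration. TGI: total growth inhibition.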

How the values were obtained:
Experiment in all cases: NCI-60 cell line screen, 48 h
786-0 renal = system: 786-0 renal
CAKI-1 renal = system: CAKI-1 renal
EKVX NSCLC = system: EKVX NSCLC
HCT-15 colon = system: HCT-15 colon
HOP-62 NSCLC = system: HOP-62 NSCLC
LOX IMVI melanoma = system: LOX IMVI melanoma
MALME-3M melanoma = system: MALME-3M melanoma
MOLT-4 leukemia = system: MOLT-4 leukemia
NCI-H226 lung = system: NCI-H226 lung
OVCAR-4 ovarian = system: OVCAR-4 ovarian
RPMI-8226 leukemia = system: RPMI-8226 leukemia
TK-10 renal = system: TK-10 renal
UACC-257 melanoma = system: UACC-257 melanoma
UACC-62 melanoma = system: UACC-62 melanoma

O=C1CCSCCC(=O)Nc2ccccc2N1
TGI (786-0 renal): > 100 µM
TGI (CAKI-1 renal): > 100 µM
TGI (EKVX NSCLC): > 100 µM
TGI (HCT-15 colon): > 100 µM
TGI (HOP-62 NSCLC): > 100 µM
TGI (LOX IMVI melanoma): > 100 µM
TGI (MALME-3M melanoma): > 100 µM
TGI (MOLT-4 leukemia): > 100 µM
TGI (NCI-H226 lung): > 100 µM
TGI (OVCAR-4 ovarian): > 100 µM
TGI (RPMI-8226 leukemia): > 100 µM
TGI (TK-10 renal): > 100 µM
TGI (UACC-257 melanoma): > 100 µM
TGI (UACC-62 melanoma): > 100 µM

O=C1c2c(Br)sc(Br)c2C(=O)C1(O)O
TGI (786-0 renal): > 100 µM
TGI (CAKI-1 renal): 33.3 µM
TGI (EKVX NSCLC): > 100 µM
TGI (HCT-15 colon): 73.4 µM
TGI (HOP-62 NSCLC): > 100 µM
TGI (LOX IMVI melanoma): > 100 µM
TGI (MALME-3M melanoma): 34.6 µM
TGI (MOLT-4 leukemia): 93.5 µM
TGI (NCI-H226 lung): > 100 µM
TGI (OVCAR-4 ovarian): 34.3 µM
TGI (RPMI-8226 leukemia): > 100 µM
TGI (TK-10 renal): > 100 µM
TGI (UACC-257 melanoma): 37.4 µM
TGI (UACC-62 melanoma): > 100 µM

Nc1c(S(=O)(=O)c2ccccc2)c2nc3ccccc3nc2n2c1nc1ccccc12
TGI (786-0 renal): > 50.5 µM
TGI (CAKI-1 renal): > 100 µM
TGI (EKVX NSCLC): > 100 µM
TGI (HCT-15 colon): > 100 µM
TGI (HOP-62 NSCLC): > 49.6 µM
TGI (LOX IMVI melanoma): > 100 µM
TGI (MALME-3M melanoma): > 80.9 µM
TGI (MOLT-4 leukemia): > 100 µM
TGI (NCI-H226 lung): > 75.1 µM
TGI (OVCAR-4 ovarian): > 80.5 µM
TGI (RPMI-8226 leukemia): > 100 µM
TGI (TK-10 renal): > 100 µM
TGI (UACC-257 melanoma): > 100 µM
TGI (UACC-62 melanoma): > 100 µM

Cc1ccc(C(=O)NCc2ccccc2)cc1N=NN(C)C
TGI (786-0 renal): > 100 µM
TGI (CAKI-1 renal): > 100 µM
TGI (EKVX NSCLC): > 100 µM
TGI (HCT-15 colon): > 100 µM
TGI (HOP-62 NSCLC): > 100 µM
TGI (LOX IMVI melanoma): > 100 µM
TGI (MALME-3M melanoma): > 100 µM
TGI (MOLT-4 leukemia): > 100 µM
TGI (NCI-H226 lung): > 100 µM
TGI (OVCAR-4 ovarian): > 100 µM
TGI (RPMI-8226 leukemia): > 100 µM
TGI (TK-10 renal): > 100 µM
TGI (UACC-257 melanoma): 88.2 µM
TGI (UACC-62 melanoma): > 100 µM

CCCCC1Cc2cc(O)ccc2-c2nc3cc(O)ccc3n21 (configuration not stated) (tested in a mixture with another compound)
TGI (786-0 renal): 52.9 µM
TGI (CAKI-1 renal): 89 µM
TGI (EKVX NSCLC): 51.9 µM
TGI (HCT-15 colon): 25 µM
TGI (HOP-62 NSCLC): 30.2 µM
TGI (LOX IMVI melanoma): 30.9 µM
TGI (MALME-3M melanoma): 57.8 µM
TGI (MOLT-4 leukemia): 46.9 µM
TGI (NCI-H226 lung): 46.3 µM
TGI (OVCAR-4 ovarian): 30.8 µM
TGI (RPMI-8226 leukemia): 31.5 µM
TGI (TK-10 renal): 43.3 µM
TGI (UACC-257 melanoma): 45.6 µM
TGI (UACC-62 melanoma): 25.5 µM

O=[N+]([O-])c1c(F)c(F)c2c(c1F)N(CCCCCl)c1ccccc1S2
TGI (786-0 renal): 23.8 µM
TGI (CAKI-1 renal): 19.3 µM
TGI (EKVX NSCLC): 41.3 µM
TGI (HCT-15 colon): 3.31 µM
TGI (HOP-62 NSCLC): 38.3 µM
TGI (LOX IMVI melanoma): 3.06 µM
TGI (MALME-3M melanoma): 31.4 µM
TGI (MOLT-4 leukemia): > 21.6 µM
TGI (NCI-H226 lung): 33.1 µM
TGI (OVCAR-4 ovarian): 21.2 µM
TGI (RPMI-8226 leukemia): 20.8 µM
TGI (TK-10 renal): 32.5 µM
TGI (UACC-257 melanoma): 27.5 µM
TGI (UACC-62 melanoma): 26.9 µM

C=C1CCCCCCCCC/C=C/1SCCCSC
TGI (786-0 renal): > 100 µM
TGI (CAKI-1 renal): > 100 µM
TGI (EKVX NSCLC): > 100 µM
TGI (HCT-15 colon): > 100 µM
TGI (HOP-62 NSCLC): > 100 µM
TGI (LOX IMVI melanoma): > 100 µM
TGI (MALME-3M melanoma): > 100 µM
TGI (MOLT-4 leukemia): > 100 µM
TGI (NCI-H226 lung): > 100 µM
TGI (OVCAR-4 ovarian): > 100 µM
TGI (RPMI-8226 leukemia): > 100 µM
TGI (TK-10 renal): > 100 µM
TGI (UACC-257 melanoma): > 100 µM
TGI (UACC-62 melanoma): > 100 µM

O=C1C=C(Nc2ccc(S(=O)(=O)Nc3nccs3)cc2)c2ccccc2C1=O
TGI (786-0 renal): > 100 µM
TGI (CAKI-1 renal): 82.9 µM
TGI (EKVX NSCLC): > 100 µM
TGI (HCT-15 colon): 79.4 µM
TGI (HOP-62 NSCLC): 29.7 µM
TGI (LOX IMVI melanoma): 48.6 µM
TGI (MALME-3M melanoma): 48.7 µM
TGI (MOLT-4 leukemia): > 100 µM
TGI (NCI-H226 lung): 70.1 µM
TGI (OVCAR-4 ovarian): > 100 µM
TGI (RPMI-8226 leukemia): 98.5 µM
TGI (TK-10 renal): > 100 µM
TGI (UACC-257 melanoma): > 100 µM
TGI (UACC-62 melanoma): 53.5 µM

CC(=O)c1c(N=[N+]=[N-])c2cccc3c2n(c1=O)CCC3
TGI (786-0 renal): 33.5 µM
TGI (CAKI-1 renal): 57.8 µM
TGI (EKVX NSCLC): 54.1 µM
TGI (HCT-15 colon): 47.4 µM
TGI (HOP-62 NSCLC): 42.3 µM
TGI (LOX IMVI melanoma): 40.8 µM
TGI (MALME-3M melanoma): 27.6 µM
TGI (MOLT-4 leukemia): 62.6 µM
TGI (NCI-H226 lung): 50.4 µM
TGI (OVCAR-4 ovarian): 52.3 µM
TGI (RPMI-8226 leukemia): 66.9 µM
TGI (TK-10 renal): 59 µM
TGI (UACC-257 melanoma): 37.8 µM
TGI (UACC-62 melanoma): 35.1 µM

CCOC(=O)C(Cc1ccc(O)cc1)Nc1nc(=O)c2c(=O)oc(Cl)cc2o1 (configuration not stated)
TGI (786-0 renal): 22.3 µM
TGI (CAKI-1 renal): 16.6 µM
TGI (EKVX NSCLC): 25.5 µM
TGI (HCT-15 colon): 37.3 µM
TGI (HOP-62 NSCLC): 26.7 µM
TGI (LOX IMVI melanoma): 27.9 µM
TGI (MALME-3M melanoma): 16.5 µM
TGI (MOLT-4 leukemia): 10.1 µM
TGI (NCI-H226 lung): 42.5 µM
TGI (OVCAR-4 ovarian): 25.9 µM
TGI (RPMI-8226 leukemia): 8.59 µM
TGI (TK-10 renal): 20.6 µM
TGI (UACC-257 melanoma): 29.7 µM
TGI (UACC-62 melanoma): 28.5 µM

CN1CCc2c(sc3[nH]c(=S)[nH]c(=S)c23)C1
TGI (786-0 renal): > 100 µM
TGI (CAKI-1 renal): > 100 µM
TGI (EKVX NSCLC): > 100 µM
TGI (HCT-15 colon): > 100 µM
TGI (HOP-62 NSCLC): > 100 µM
TGI (LOX IMVI melanoma): > 100 µM
TGI (MALME-3M melanoma): > 100 µM
TGI (MOLT-4 leukemia): > 100 µM
TGI (NCI-H226 lung): > 100 µM
TGI (OVCAR-4 ovarian): > 100 µM
TGI (RPMI-8226 leukemia): > 100 µM
TGI (TK-10 renal): > 100 µM
TGI (UACC-257 melanoma): > 100 µM
TGI (UACC-62 melanoma): > 100 µM

Cc1ccc(CSC(N)=Nc2ccccc2)cc1C
TGI (786-0 renal): 44.7 µM
TGI (CAKI-1 renal): 60.9 µM
TGI (EKVX NSCLC): 75.8 µM
TGI (HCT-15 colon): 60.1 µM
TGI (HOP-62 NSCLC): 49.1 µM
TGI (LOX IMVI melanoma): 36.2 µM
TGI (MALME-3M melanoma): 34.2 µM
TGI (MOLT-4 leukemia): 75.4 µM
TGI (NCI-H226 lung): 43 µM
TGI (OVCAR-4 ovarian): 36.5 µM
TGI (RPMI-8226 leukemia): 75.9 µM
TGI (TK-10 renal): 86.7 µM
TGI (UACC-257 melanoma): 36.9 µM
TGI (UACC-62 melanoma): 26.6 µM

Cc1n[n+](Cc2ccccc2)c2sc(N)nn12
TGI (786-0 renal): > 100 µM
TGI (CAKI-1 renal): > 100 µM
TGI (EKVX NSCLC): > 100 µM
TGI (HCT-15 colon): > 100 µM
TGI (HOP-62 NSCLC): > 100 µM
TGI (LOX IMVI melanoma): > 100 µM
TGI (MALME-3M melanoma): > 100 µM
TGI (MOLT-4 leukemia): > 100 µM
TGI (NCI-H226 lung): > 100 µM
TGI (OVCAR-4 ovarian): > 100 µM
TGI (RPMI-8226 leukemia): > 100 µM
TGI (TK-10 renal): > 100 µM
TGI (UACC-257 melanoma): > 100 µM
TGI (UACC-62 melanoma): 38.5 µM
